Converted amounts (≈) assume the structure as drawn. The source made the active and inactive calls. The rule behind the calls is not given here.

The subject of data set [1] is Mycobacterium tuberculosis. Put plainly: Antimycobacterial activity against Mycobacterium tuberculosis H37Rv BSG001. The class given is functional, organism-based.
Data set [2] is described as follows: Cytotoxicity against human HepG2 cells after 24 to 48 hrs in presence of glucose by trypan blue dye-based hemocytometric method. The class given is cell-based.
The next data set relates to Escherichia coli. Put plainly: Antibacterial activity against Escherichia coli 25922. It is filed as functional, organism-based. The following applies: ATCC 25922.
Data set [3] is described as follows: Cytotoxicity against human HepG2 cells after 24 to 48 hrs in presence of galactose by trypan blue dye-based hemocytometric method. The class given is cell-based.
The subject of data set [4] is Mycobacterium tuberculosis. The data set can be described thus: Antimycobacterial activity against Mycobacterium tuberculosis H37Rv measured after 1 week. The following applies: 168 h. It is filed as functional.
Data set [5] concerns Mycobacterium tuberculosis. Put plainly: Antimycobacterial activity against Mycobacterium tuberculosis H37Rv after 2 weeks by microplate alamar blue assay. The following applies: 336 h. The class given is functional.
For data set [6], the system named is Mycobacteroides abscessus. Put plainly: Antibacterial activity against Mycobacterium abscessus. It is filed as functional, organism-based.
A further data set deals with Staphylococcus aureus. The data set can be described thus: Antibacterial activity against Staphylococcus aureus XEN36. It is filed as functional, organism-based.
Data set [7] concerns Mycolicibacterium smegmatis. The data set can be described thus: Antibacterial activity against Mycobacterium smegmatis. The class given is functional, organism-based.
Data set [8] relates to Mycobacterium tuberculosis. The data set can be described thus: Antimycobacterial activity against Mycobacterium tuberculosis H37Rv measured after 2 weeks. It is filed as functional. The following applies: 336 h.
Data set [9] concerns Mycobacterium tuberculosis H37Rv. The data set can be described thus: Inhibition of Mycobacterium tuberculosis H37Rv cytochrome bc1 oxidase assessed as reduction in ATP level measured up to 24 hrs under anaerobic condition.

With `CCCCCNC(=O)COc1cc(C)nc2ccc(OC)cc12`, the outcome (in [1]; in the data set with Escherichia coli; in data set [6]; in the data set on Staphylococcus aureus; in data set [7]) was inactive. Further, the figures for the CC50 in data set [2] and in data set [3] were greater than 158 µM and 106 µM, respectively. In addition, the MIC in [4] worked out at 158 µM (≈ 50 µg/mL); in [5], 19.8 µM (≈ 6.25 µg/mL); in data set [8] it was 158 µM (≈ 50 µg/mL). In data set [9], the inhibition entry is “Active”.
Take `COc1cccc(NC(=O)COc2cc(C)nc3ccc(OC)cc23)c1`: the result (in data set [1]; with Escherichia coli; in data set [6]; in the data set on Staphylococcus aureus; in data set [7]) was inactive. Further, the values for the CC50 in [2] and in data set [3] were 43 µM and 24.7 µM, respectively. Besides, the values for the minimum inhibitory concentration (MIC) in data set [4], in [5] and in data set [8] were 142 µM (≈ 50 µg/mL), 6.53 µM (≈ 2.3 µg/mL) and greater than 142 µM, respectively. Also, the inhibition entry in data set [9] is “Active”.
In the case of `COc1ccccc1NC(=O)COc1cc(C)nc2ccc(Cl)cc12`, the result (in [1]; with Escherichia coli; in [6]; in the data set with Staphylococcus aureus; in [7]) was inactive. Also, the CC50 in data set [2] is 140 µM; in data set [3], 99.2 µM. In addition, the MIC in data set [4] is 26.4 µM (≈ 9.4 µg/mL); in data set [5], 104 µM (≈ 37 µg/mL); in [8], greater than 140 µM. Moreover, the inhibition entry in [9] was “Active”.
As for `COc1ccccc1NC(=O)COc1cc(C)nc2ccc(C(F)(F)F)cc12`, the result (in data set [1]; with Escherichia coli; in data set [6]; with Staphylococcus aureus; in data set [7]) was inactive. Besides, the CC50 in [2] and in [3] was greater than 128 µM in each case. For the same compound, the MIC in data set [4], in data set [5] and in data set [8] was greater than 128 µM each time. For the same compound, the inhibition result in [9] was “Active”.
`C#CCNC(=O)COc1cc(C)nc2ccc(OC)cc12`: the result (in data set [1]; with Escherichia coli; in [6]; in the data set with Staphylococcus aureus; in [7]) was inactive. The CC50 in [2] and in data set [3] was greater than 176 µM each time. In addition, the MIC in data set [4], in data set [5] and in data set [8] was greater than 176 µM each time. Moreover, the inhibition result in data set [9] is “Active”.
Regarding `COc1ccc2nc(C)cc(OCC(=O)NCc3ccc4c(c3)OCO4)c2c1`, the result (in data set [1]; in the data set on Escherichia coli; in data set [6]; in the data set with Staphylococcus aureus; in data set [7]) was inactive. Moreover, the cytotoxic concentration (CC50) in data set [2] is greater than 131 µM; in data set [3], 86.9 µM. Further, the MIC in data set [4] was determined as 0.53 µM (≈ 0.202 µg/mL); in data set [5], 0.53 µM (≈ 0.202 µg/mL); in data set [8] it was 24.7 µM (≈ 9.4 µg/mL). In addition, in data set [9], the inhibition entry is “Active”.
As for `COc1ccc2nc(C)cc(OCC(=O)NCCc3ccccc3)c2c1`, the result (in [1]; in the data set with Escherichia coli; in data set [6]; in the data set on Staphylococcus aureus; in [7]) was inactive. The CC50 in data set [2] is 61.4 µM; in [3] it was 83.9 µM. In addition, the minimal inhibitory concentration (MIC) was 143 µM (≈ 50 µg/mL) in [4], 54.2 µM (≈ 19 µg/mL) in data set [5] and greater than 143 µM in [8]. The inhibition entry in [9] is “Active”.
Consider `COc1nc2ccc(Br)cc2cc1[C@@H](c1ccccc1)[C@@](O)(CCN(C)C)c1cccc2ccccc12`, for which the inhibition result in data set [9] is “Active”.
Regarding `COc1ccc2nc(C)cc(OCC(=O)NCCc3ccc4c(c3)OCO4)c2c1`, the result (in data set [1]; in the data set on Escherichia coli; in data set [6]; in the data set with Staphylococcus aureus; in data set [7]) was inactive. The cytotoxic concentration (CC50) in [2] and in [3] was greater than 127 µM each time. Also, the MIC in [4] was no less than 127 µM; in [5], 31.7 µM (≈ 12.5 µg/mL); in [8] it was greater than 127 µM. Moreover, in data set [9], the inhibition entry is “Active”.
As to `c1ccc(Cn2cnc3c(-c4ccco4)nccc32)cc1`, the cytotoxic concentration (CC50) in data set [2] and in [3] was greater than 25 µM throughout. Further, the MIC in data set [4] is 12.5 µM (≈ 3.44 µg/mL); in data set [5], 1.56 µM (≈ 0.429 µg/mL); in data set [8], greater than 25 µM. In addition, the inhibition entry in data set [9] was “Active”.
In the case of `COc1ccc(OC)c(CCNC(=O)COc2cc(C)nc3ccc(OC)cc23)c1`, the result (in [1]; in the data set on Escherichia coli; in [6]; in the data set on Staphylococcus aureus; in data set [7]) was inactive. The CC50 in [2] and in data set [3] was greater than 122 µM throughout. Also, the MIC was 122 µM (≈ 50 µg/mL) in data set [4], 60.9 µM (≈ 25 µg/mL) in data set [5] and greater than 122 µM in [8]. Besides, the inhibition entry in data set [9] is “Active”.
As for `COc1ccc2nc(C)cc(OCC(=O)Nc3ccc4c(c3)OCO4)c2c1`, the outcome (in data set [1]; in the data set on Escherichia coli; in [6]; in the data set on Staphylococcus aureus; in data set [7]) was inactive. The CC50 was found to be 80 µM in [2] and 39.6 µM in data set [3]. The MIC in data set [4] was 4.26 µM (≈ 1.56 µg/mL); in data set [5], 2.13 µM (≈ 0.78 µg/mL); in data set [8], greater than 136 µM. Further, in data set [9], the inhibition entry is “Active”.
Regarding `COc1ccc2nc(C)cc(OCC(=O)Nc3cccc(Br)c3)c2c1`, the outcome (in data set [1]; with Escherichia coli; in data set [6]; with Staphylococcus aureus; in data set [7]) was inactive. For the same compound, the CC50 in data set [2] and in data set [3] was greater than 125 µM throughout. For the same compound, the minimal inhibitory concentration (MIC) is 92.2 µM (≈ 37 µg/mL) in [4], greater than 125 µM in data set [5] and greater than 125 µM in [8]. For the same compound, in data set [9], the inhibition entry is “Active”.
On to `COc1ccc2nc(C)cc(OCC(=O)NCCCc3ccccc3)c2c1`, for which the outcome (in [1]; with Escherichia coli; in [6]; in the data set with Staphylococcus aureus; in data set [7]) was inactive. The values for the CC50 in data set [2] and in [3] were greater than 137 µM and 50.7 µM, respectively. Also, the minimal inhibitory concentration (MIC) was found to be 68.6 µM (≈ 25 µg/mL) in data set [4], 25.8 µM (≈ 9.4 µg/mL) in data set [5] and 68.6 µM (≈ 25 µg/mL) in data set [8]. Further, the inhibition entry in [9] is “Active”.
On to `Nc1ccc(C(=O)O)c(O)c1` [AMINOSALICYLIC ACID], for which the values for the MIC in data set [4], in data set [5] and in data set [8] were 0.3 µM (≈ 0.0459 µg/mL), 0.3 µM (≈ 0.0459 µg/mL) and 0.6 µM (≈ 0.0919 µg/mL), respectively.
For the compound `CCCCCC[C@H]1C(=O)O[C@H](C)[C@H](NC(=O)c2cccc(NC=O)c2O)C(=O)O[C@@H](C)[C@@H]1OC(=O)CC(C)C` [ANTIMYCIN A], the CC50 in data set [2] is greater than 50 µM; in data set [3] it was 0.017 µM.
Take `CC(=O)NC[C@H]1CN(c2ccc(N3CCOCC3)c(F)c2)C(=O)O1` [LINEZOLID]: the MIC in data set [4], in data set [5] and in data set [8] was 2.3 µM (≈ 0.776 µg/mL) each time. Moreover, the inhibition entry in [9] was “inactive”.

The record behind these values is ChEMBL document CHEMBL4190162, “SAR and identification of 2-(quinolin-4-yloxy)acetamides as Mycobacterium tuberculosis cytochrome bc1 inhibitors” (Medchemcomm, 2016).
